Laboratory results from ChEMBL document CHEMBL1201861, “Genomics of Drug Sensitity in Cancer screening data, Wellcome Trust Sanger Institute”.

Key:
Test in all cases: cells
COLO-800 = format: functional, cell-based, Homo sapiens; settings: Homo sapiens, COLO-800;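 also: growth inhibition of COLO-800 cells, read out with a cell viability assay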
Description: SANGER: Inhibition of human COLO-800 cell growth in a cell viability assay.

JVM-2 = format: functional, cell-based, Homo sapiens; settings: Homo sapiens, JVM-2;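 also: growth inhibition of JVM-2 cells determined by a cell viability assay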
Description: SANGER: Inhibition of human JVM-2 cell growth in a cell viability assay.

SK-PN-DW = format: functional, cell-based, Homo sapiens; settings: Homo sapiens, SK-PN-DW;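 also: growth inhibition measured with a viability assay on these cells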
Description: SANGER: Inhibition of human SK-PN-DW cell growth in a cell viability assay.

BB30-HNC = format: functional, cell-based, Homo sapiens; settings: Homo sapiens, BB30-HNC;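 also: growth inhibition of the cultured cell line, read out by a cell viability assay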
Description: SANGER: Inhibition of human BB30-HNC cell growth in a cell viability assay.

EM-2 = format: functional, cell-based, Homo sapiens; settings: Homo sapiens, EM-2;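 also: growth inhibition of EM-2 cells, read out with a cell viability assay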
Description: SANGER: Inhibition of human EM-2 cell growth in a cell viability assay.

DOHH-2 = format: functional, cell-based, Homo sapiens; settings: Homo sapiens, DOHH-2;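 also: growth inhibition of human DOHH-2 cells, read out with a cell viability assay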
Description: SANGER: Inhibition of human DOHH-2 cell growth in a cell viability assay.

A3-KAW = format: functional, cell-based, Homo sapiens; settings: Homo sapiens, A3-KAW;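 also: growth inhibition of human A3-KAW cells, read out with a cell viability assay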
Description: SANGER: Inhibition of human A3-KAW cell growth in a cell viability assay.

TE-5 = format: functional, cell-based, Homo sapiens; settings: Homo sapiens, TE-5;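 also: inhibition of cell growth, read out by a cell viability assay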
Description: SANGER: Inhibition of human TE-5 cell growth in a cell viability assay.

NCI-H2126 = format: functional, cell-based, Homo sapiens; settings: Homo sapiens, NCI-H2126;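 also: growth inhibition of the cancer cell line, determined with a cell viability readout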
Description: SANGER: Inhibition of human NCI-H2126 cell growth in a cell viability assay.

D-247MG = format: functional, cell-based; settings: Homo sapiens
Description: SANGER: Inhibition of human D-247MG cell growth in a cell viability assay.

SNU-5 = format: functional, cell-based, Homo sapiens; settings: Homo sapiens, SNU-5;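 also: cell viability readout used to measure growth inhibition in human NCI-SNU-5 cells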
Description: SANGER: Inhibition of human NCI-SNU-5 cell growth in a cell viability assay.

NCI-H1770 = format: functional, cell-based, Homo sapiens; settings: Homo sapiens, NCI-H1770;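 also: growth inhibition of NCI-H1770 cells determined with a viability readout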
Description: SANGER: Inhibition of human NCI-H1770 cell growth in a cell viability assay.

HCC2157 = format: functional, cell-based, Homo sapiens; settings: Homo sapiens, HCC2157;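 also: growth inhibition of the cancer cell line, read out as cell viability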
Description: SANGER: Inhibition of human HCC2157 cell growth in a cell viability assay.

Lu-65 = format: functional, cell-based, Homo sapiens; settings: Homo sapiens, Lu-65;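 also: growth inhibition of Lu-65 cancer cells, read out by a cell viability assay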
Description: SANGER: Inhibition of human LU-65 cell growth in a cell viability assay.

ACN = format: functional, cell-based, Homo sapiens; settings: Homo sapiens, ACN;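 also: growth inhibition of the human ACN cell line, read out via cell viability testing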
Description: SANGER: Inhibition of human ACN cell growth in a cell viability assay.

MZ1-PC = format: functional, cell-based, Homo sapiens; settings: Homo sapiens, MZ1-PC;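 also: cell viability assay measuring growth inhibition of human MZ1-PC cells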
Description: SANGER: Inhibition of human MZ1-PC cell growth in a cell viability assay.

P30-OHK = format: functional, cell-based, Homo sapiens; settings: Homo sapiens, P30-OHK;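 also: growth inhibition of the P30-OHK cell line, read out with a cell viability assay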
Description: SANGER: Inhibition of human P30-OHK cell growth in a cell viability assay.

LS-513 = format: functional, cell-based, Homo sapiens; settings: Homo sapiens, LS-513
Description: SANGER: Inhibition of human LS-513 cell growth in a cell viability assay.

ES6 = format: functional, cell-based; settings: Homo sapiens;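 also: growth inhibition of human ES6 cells, read out with a cell viability assay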
Description: SANGER: Inhibition of human ES6 cell growth in a cell viability assay.

GCIY = format: functional, cell-based, Homo sapiens; settings: Homo sapiens, GCIY;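 also: growth inhibition of the human GCIY cell line, read out by a cell viability assay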
Description: SANGER: Inhibition of human GCIY cell growth in a cell viability assay.

LB831-BLC = format: functional, cell-based, Homo sapiens; settings: Homo sapiens, LB831-BLC;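 also: growth inhibition of LB831-BLC cells, read out with a cell viability assay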
Description: SANGER: Inhibition of human LB831-BLC cell growth in a cell viability assay.

HT-144 = format: functional, cell-based, Homo sapiens; settings: Homo sapiens, HT-144
Description: SANGER: Inhibition of human HT-144 cell growth in a cell viability assay.

Calu-6 = format: functional, cell-based, Homo sapiens; settings: Homo sapiens, Calu-6;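 also: growth of human Calu-6 cells, read out by a cell viability assay, IC50 marking inhibition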
Description: SANGER: Inhibition of human Calu-6 cell growth in a cell viability assay.

SF-539 = format: functional, cell-based, Homo sapiens; settings: Homo sapiens, SF-539;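 also: Read-out is a cell viability assay, with IC50 reflecting inhibition of cell growth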
Description: SANGER: Inhibition of human SF539 cell growth in a cell viability assay.

KARPAS-299 = format: functional, cell-based, Homo sapiens; settings: Homo sapiens, KARPAS-299
Description: SANGER: Inhibition of human KARPAS-299 cell growth in a cell viability assay.

SNB-75 = format: functional, cell-based, Homo sapiens; settings: Homo sapiens, SNB-75;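 also: cell viability assay measuring growth inhibition of human SNB-75 cells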
Description: SANGER: Inhibition of human SNB75 cell growth in a cell viability assay.

NCI-H747 = format: functional, cell-based, Homo sapiens; settings: Homo sapiens, NCI-H747;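 also: growth inhibition of human NCI-H747 cells, read out by a cell viability assay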
Description: SANGER: Inhibition of human NCI-H747 cell growth in a cell viability assay.

SCH = format: functional, cell-based, Homo sapiens; settings: Homo sapiens, SCH;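 also: growth inhibition of human SCH cells, read out in a cell viability assay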
Description: SANGER: Inhibition of human SCH cell growth in a cell viability assay.

MOLT-4 = format: functional, cell-based, Homo sapiens; settings: Homo sapiens, MOLT-4;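 also: growth inhibition of MOLT-4 cells, determined with a cell viability readout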
Description: SANGER: Inhibition of human MOLT-4 cell growth in a cell viability assay.

RXF 393 = format: functional, cell-based, Homo sapiens; settings: Homo sapiens, RXF 393;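 also: growth inhibition of human RXF 393 cells, read out with a cell viability assay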
Description: SANGER: Inhibition of human RXF393 cell growth in a cell viability assay.

NCI-H23 = format: functional, cell-based, Homo sapiens; settings: Homo sapiens, NCI-H23;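 also: cell viability assay measuring growth inhibition of NCI-H23 cells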
Description: SANGER: Inhibition of human NCI-H23 cell growth in a cell viability assay.

TE-12 = format: functional, cell-based, Homo sapiens; settings: Homo sapiens, TE-12;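 also: growth inhibition of TE-12 cells, read out by a cell viability assay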
Description: SANGER: Inhibition of human TE-12 cell growth in a cell viability assay.

COLO-824 = format: functional, cell-based, Homo sapiens; settings: Homo sapiens, COLO-824
Description: SANGER: Inhibition of human COLO-824 cell growth in a cell viability assay.

ES5 = format: functional, cell-based, Homo sapiens; settings: Homo sapiens, ES5;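 also: growth inhibition of human ES5 cells, read out by a cell viability assay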
Description: SANGER: Inhibition of human ES5 cell growth in a cell viability assay.

NCI-H82 = format: functional, cell-based, Homo sapiens; settings: Homo sapiens, NCI-H82;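 also: growth inhibition of NCI-H82 cells, measured with a cell viability readout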
Description: SANGER: Inhibition of human NCI-H82 cell growth in a cell viability assay.

TE-8 = format: functional, cell-based, Homo sapiens; settings: Homo sapiens, TE-8;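 also: growth inhibition of TE-8 cells, measured with a cell viability readout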
Description: SANGER: Inhibition of human TE-8 cell growth in a cell viability assay.

MC116 = format: functional, cell-based, Homo sapiens; settings: Homo sapiens, MC116;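 also: growth inhibition of MC116 cells, read out with a cell viability assay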
Description: SANGER: Inhibition of human MC116 cell growth in a cell viability assay.

TE-11 = format: functional, cell-based; settings: Homo sapiens;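 also: growth inhibition of human TE-11 cells, read out by a cell viability assay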
Description: SANGER: Inhibition of human TE-11 cell growth in a cell viability assay.

HCC1187 = format: functional, cell-based, Homo sapiens; settings: Homo sapiens, HCC1187;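 also: growth inhibition of HCC1187 cells, read out with a cell viability assay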
Description: SANGER: Inhibition of human HCC1187 cell growth in a cell viability assay.

HDLM-2 = format: functional, cell-based, Homo sapiens; settings: Homo sapiens, HDLM-2;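 also: cell viability assay measuring suppression of HDLM-2 proliferation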
Description: SANGER: Inhibition of human HDLM-2 cell growth in a cell viability assay.

CW-2 = format: functional, cell-based, Homo sapiens; settings: Homo sapiens, CW-2;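 also: growth inhibition of CW-2 cells, read out by a cell viability assay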
Description: SANGER: Inhibition of human CW-2 cell growth in a cell viability assay.

TE-10 = format: functional, cell-based, Homo sapiens; settings: Homo sapiens, TE-10;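 also: growth inhibition of TE-10 cells, measured by a cell viability assay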
Description: SANGER: Inhibition of human TE-10 cell growth in a cell viability assay.

ES4 = format: functional, cell-based, Homo sapiens; settings: Homo sapiens, ES4;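 also: growth inhibition of human ES4 cells, read out by a cell viability assay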
Description: SANGER: Inhibition of human ES4 cell growth in a cell viability assay.

NTERA-2-cl-D1 = format: functional, cell-based, Homo sapiens; settings: Homo sapiens, NTERA-2-cl-D1;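 also: inhibition of cell growth, measured with a cell viability assay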
Description: SANGER: Inhibition of human NTERA-S-cl-D1 cell growth in a cell viability assay.

NB10 = format: functional, cell-based, Homo sapiens; settings: Homo sapiens, NB10;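 also: growth inhibition of NB10 cells, read out by a cell viability assay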
Description: SANGER: Inhibition of human NB10 cell growth in a cell viability assay.

LS-123 = format: functional, cell-based, Homo sapiens; settings: Homo sapiens, LS-123
Description: SANGER: Inhibition of human LS-123 cell growth in a cell viability assay.

DU-4475 = format: functional, cell-based, Homo sapiens; settings: Homo sapiens, DU-4475
Description: SANGER: Inhibition of human DU-4475 cell growth in a cell viability assay.

QIMR-WIL = format: functional, cell-based, Homo sapiens; settings: Homo sapiens, QIMR-WIL;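 also: growth inhibition of QIMR-WIL cells, read out with a cell viability assay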
Description: SANGER: Inhibition of human QIMR-WIL cell growth in a cell viability assay.

EKVX = format: functional, cell-based, Homo sapiens; settings: Homo sapiens, EKVX;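 also: growth inhibition of human EKVX cells, read out with a cell viability assay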
Description: SANGER: Inhibition of human EKVX cell growth in a cell viability assay.

Measured: IC50

O=C1NC(=O)c2c1c(-c1ccccc1Cl)cc1[nH]c3ccc(O)cc3c21
0.924 µM: ES4
0.516 µM: A3-KAW
0.135 µM: QIMR-WIL
1.91 µM: P30-OHK
1.57 µM: HCC2157
1.25 µM: SF-539
> 2 µM: COLO-800 | JVM-2 | SK-PN-DW | DOHH-2 | TE-5 | NCI-H2126 | D-247MG | SNU-5 | NCI-H1770 | Lu-65 | ACN | MZ1-PC | LS-513 | ES6 | GCIY | LB831-BLC | HT-144 | Calu-6 | KARPAS-299 | SNB-75 | NCI-H747 | SCH | MOLT-4 | RXF 393 | NCI-H23 | TE-12 | COLO-824 | ES5 | NCI-H82 | TE-8 | MC116 | TE-11 | HCC1187 | HDLM-2 | CW-2 | TE-10 | NTERA-2-cl-D1 | NB10 | LS-123 | DU-4475
1.36 µM: BB30-HNC
1.33 µM: EM-2

NC1(c2ccc(-c3nc4ccn5c(=O)[nH]nc5c4cc3-c3ccccc3)cc2)CCC1 [MK-2206]
0.979 µM: EM-2
0.345 µM: ES5
1.49 µM: QIMR-WIL
2.6 µM: RXF 393
3.81 µM: P30-OHK
> 4 µM: COLO-800 | JVM-2 | SK-PN-DW | BB30-HNC | A3-KAW | TE-5 | D-247MG | SNU-5 | NCI-H1770 | Lu-65 | ACN | MZ1-PC | ES6 | GCIY | LB831-BLC | HT-144 | Calu-6 | SF-539 | KARPAS-299 | SNB-75 | SCH | NCI-H23 | TE-12 | COLO-824 | NCI-H82 | TE-8 | MC116 | TE-11 | HCC1187 | HDLM-2 | CW-2 | TE-10 | ES4 | NTERA-2-cl-D1 | EKVX | NB10 | LS-123 | DU-4475
0.806 µM: MOLT-4
1.28 µM: DOHH-2
3.38 µM: HCC2157
3.21 µM: NCI-H747
2.33 µM: LS-513

CC1(C)CCC(c2ccc(Cl)cc2)=C(CN2CCN(c3ccc(C(=O)NS(=O)(=O)c4ccc(N[C@H](CCN5CCOCC5)CSc5ccccc5)c(S(=O)(=O)C(F)(F)F)c4)cc3)CC2)C1 [NAVITOCLAX]
1.19 µM: HCC2157
0.5 µM: NTERA-2-cl-D1
1.02 µM: COLO-824
0.654 µM: DU-4475
0.0429 µM: QIMR-WIL
0.152 µM: MOLT-4
> 2 µM: COLO-800 | JVM-2 | SK-PN-DW | BB30-HNC | A3-KAW | TE-5 | NCI-H2126 | SNU-5 | NCI-H1770 | Lu-65 | ACN | MZ1-PC | LS-513 | ES6 | GCIY | LB831-BLC | HT-144 | Calu-6 | SF-539 | KARPAS-299 | SNB-75 | NCI-H747 | SCH | RXF 393 | NCI-H23 | TE-12 | ES5 | NCI-H82 | TE-8 | MC116 | TE-11 | HCC1187 | HDLM-2 | CW-2 | TE-10 | EKVX | NB10 | LS-123
0.199 µM: EM-2
1.05 µM: P30-OHK
0.41 µM: DOHH-2
1.51 µM: D-247MG
1.35 µM: ES4
